Experimental data taken from patent US9931329B2, “Phenyl triazole derivative and its use for modulating the GABAA receptor complex” (SANIONA A/S, priority 2012, dated 2018).

What was measured:
[1] = molecular target: T1, human GABAA α5β3*γ2S receptor (Homo sapiens, UniProt P18507+P31644); experiment: In vitro inhibition of 3H-flumazenil binding, HEK cells expressing human GABAA α5β3*γ2S receptor
T1 construct: expressed in transfected cells
Experimental: When the cultures reach confluency, the DMEM is removed and the cells are washed (10 ml for T175 flasks; 50 ml for roller bottles) once in Dulbecco's Phosphate Buffered Saline (DPBS). Following addition of DPBS to the cultures (10 ml for T175 flasks; 100 ml for roller bottles) for approximately 5 min cells are easily detached from the surface by shaking or tapping the flask gently. The cell suspension is transferred to Falcon tubes and centrifuged at 23,500×g for 10 min at 2° C. The pellet is washed once in 15 ml Tris-citrate buffer (50 mM, pH 7.1) using an Ultra-Turrax homogenizer and centrifuged at 2° C. for 10 min at 27,000×g. The washed pellet is re-suspended in 15 ml Tris-citrate buffer and frozen at −80° C. until the day of the binding experiment.
On the day of the experiment the cell membrane preparation is thawed and centrifuged at 2° C. for 10 min at 27,000×g.
Non-specific binding is determined using clonazepam (1 μM, final concentration). […]
The amount of radioactivity on the filters is determined by conventional liquid scintillation counting using a […]
where B is the binding in percentage of total specific binding; C is the concentration of test compound; and n is the Hill coefficient. […] The IC50 value is calculated from the concentration response curves by the non-linear regression method using the curve-fitting program GraphPad Prism.

T1 sequence (P31644 32-462): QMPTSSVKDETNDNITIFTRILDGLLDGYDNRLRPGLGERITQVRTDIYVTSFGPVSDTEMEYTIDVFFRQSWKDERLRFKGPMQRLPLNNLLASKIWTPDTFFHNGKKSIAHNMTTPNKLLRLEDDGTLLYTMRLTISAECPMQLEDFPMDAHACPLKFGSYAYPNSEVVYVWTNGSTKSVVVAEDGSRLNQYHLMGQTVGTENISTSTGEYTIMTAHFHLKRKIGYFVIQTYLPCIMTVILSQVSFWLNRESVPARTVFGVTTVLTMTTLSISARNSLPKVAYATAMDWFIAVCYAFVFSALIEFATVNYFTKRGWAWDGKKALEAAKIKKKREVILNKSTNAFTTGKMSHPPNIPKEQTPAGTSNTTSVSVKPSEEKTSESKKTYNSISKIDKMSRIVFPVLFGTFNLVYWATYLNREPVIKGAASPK
T1 sequence (P18507 40-467 isoform P18507-1 limits assumed): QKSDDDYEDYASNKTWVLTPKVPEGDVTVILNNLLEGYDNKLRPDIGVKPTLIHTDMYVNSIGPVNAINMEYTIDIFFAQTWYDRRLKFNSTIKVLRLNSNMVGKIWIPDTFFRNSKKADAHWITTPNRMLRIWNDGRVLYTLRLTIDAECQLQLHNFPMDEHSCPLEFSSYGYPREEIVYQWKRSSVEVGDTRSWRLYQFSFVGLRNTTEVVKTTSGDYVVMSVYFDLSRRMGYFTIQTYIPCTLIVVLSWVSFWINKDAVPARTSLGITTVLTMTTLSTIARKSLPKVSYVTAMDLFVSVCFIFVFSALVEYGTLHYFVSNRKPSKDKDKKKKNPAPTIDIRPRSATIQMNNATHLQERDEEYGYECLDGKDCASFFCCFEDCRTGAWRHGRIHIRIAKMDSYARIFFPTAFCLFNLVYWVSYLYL

## Cn1nnc(-c2ccccc2F)c1COc1ccc(-n2cnc(C#N)c2)cn1 [Compound 7, 1-{6-[5-(2-Fluoro-phenyl)-3-methyl-3H-[1,2,3]triazol-4-ylmethoxy]-pyridin-3-yl}-1H-imidazole-4-carbonitrile]
[1]
  Ki: 20 nM
other
  melting point: 178 to 181.5 °C
